Assay [1] addresses T1, androgen receptor (AR) (Homo sapiens, UniProt P10275).
T1 construct: expressed in transfected cells; host or cells: PC-3 (AR-negative human prostate cancer cell line)
T1 sequence (P10275 1-920): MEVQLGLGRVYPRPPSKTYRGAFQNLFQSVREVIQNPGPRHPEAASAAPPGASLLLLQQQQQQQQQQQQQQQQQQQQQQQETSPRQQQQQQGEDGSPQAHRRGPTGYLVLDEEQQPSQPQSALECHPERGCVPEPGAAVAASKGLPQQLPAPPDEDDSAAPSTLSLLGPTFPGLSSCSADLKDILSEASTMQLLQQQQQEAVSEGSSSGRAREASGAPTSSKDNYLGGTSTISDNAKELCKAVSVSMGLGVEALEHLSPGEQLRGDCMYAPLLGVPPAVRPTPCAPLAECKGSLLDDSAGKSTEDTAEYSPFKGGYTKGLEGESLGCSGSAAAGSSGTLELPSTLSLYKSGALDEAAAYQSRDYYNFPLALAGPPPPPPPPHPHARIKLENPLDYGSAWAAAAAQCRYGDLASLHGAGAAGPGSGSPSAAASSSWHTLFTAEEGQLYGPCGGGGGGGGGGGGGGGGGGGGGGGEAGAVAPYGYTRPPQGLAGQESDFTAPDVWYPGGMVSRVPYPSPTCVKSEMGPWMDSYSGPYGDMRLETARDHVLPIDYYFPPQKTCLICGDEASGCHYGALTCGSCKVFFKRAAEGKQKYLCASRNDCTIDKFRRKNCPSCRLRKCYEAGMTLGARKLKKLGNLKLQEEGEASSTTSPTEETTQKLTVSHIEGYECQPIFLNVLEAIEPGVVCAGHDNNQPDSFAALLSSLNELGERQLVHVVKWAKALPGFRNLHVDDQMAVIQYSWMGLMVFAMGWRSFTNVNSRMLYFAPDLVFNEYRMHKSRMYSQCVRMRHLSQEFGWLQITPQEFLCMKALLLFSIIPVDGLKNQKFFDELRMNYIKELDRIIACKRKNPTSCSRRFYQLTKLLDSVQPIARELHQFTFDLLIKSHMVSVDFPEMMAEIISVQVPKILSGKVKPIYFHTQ
The assay is described as follows: Anti-adiol activity: modulation of AED-induced AR transactivation (MMTV-CAT assay). The assay is classed as cell-based. As to conditions: PC-3 cells, pSG5 AR + MMTV-CAT, 50 nM AED, compound at 10, 100 or 1000 nM; FIG. 2B. An excerpt: (§1) AR activity assay. […] Ethynyl derivatized steroids were purchased from Steraloids.

For assay [2], the target named is T1, androgen receptor (AR). Kind of assay: Induction of AR-mediated transcriptional activity (MMTV-CAT reporter assay). As to conditions: PC-3 cells co-transfected with AR plasmid and MMTV-CAT; compounds at 1000, 10 and 0.1 nM; FIG. 1. The assay is classed as cell-based. On the procedure:
as §1
Induction of AR-mediated transcriptional activity. Steroid compounds were screened for their ability to induce AR transcriptional activity in the AR-negative PC-3 cell line. The results of the CAT assay were obtained by transient co-transfection of AR plasmid and a reporter plasmid (MMTVCAT) containing the CAT gene linked to the androgen response element (ARE). After transfection, the cells were treated with various DHEA derivatives at 1000, 10, and 0.1 nM.
(In general: A reporter such as luciferase makes a cellular process visible.)

The target in assay [3] is T2, progesterone receptor (PR) (Homo sapiens, UniProt P06401).
T2 sequence (P06401 1-933): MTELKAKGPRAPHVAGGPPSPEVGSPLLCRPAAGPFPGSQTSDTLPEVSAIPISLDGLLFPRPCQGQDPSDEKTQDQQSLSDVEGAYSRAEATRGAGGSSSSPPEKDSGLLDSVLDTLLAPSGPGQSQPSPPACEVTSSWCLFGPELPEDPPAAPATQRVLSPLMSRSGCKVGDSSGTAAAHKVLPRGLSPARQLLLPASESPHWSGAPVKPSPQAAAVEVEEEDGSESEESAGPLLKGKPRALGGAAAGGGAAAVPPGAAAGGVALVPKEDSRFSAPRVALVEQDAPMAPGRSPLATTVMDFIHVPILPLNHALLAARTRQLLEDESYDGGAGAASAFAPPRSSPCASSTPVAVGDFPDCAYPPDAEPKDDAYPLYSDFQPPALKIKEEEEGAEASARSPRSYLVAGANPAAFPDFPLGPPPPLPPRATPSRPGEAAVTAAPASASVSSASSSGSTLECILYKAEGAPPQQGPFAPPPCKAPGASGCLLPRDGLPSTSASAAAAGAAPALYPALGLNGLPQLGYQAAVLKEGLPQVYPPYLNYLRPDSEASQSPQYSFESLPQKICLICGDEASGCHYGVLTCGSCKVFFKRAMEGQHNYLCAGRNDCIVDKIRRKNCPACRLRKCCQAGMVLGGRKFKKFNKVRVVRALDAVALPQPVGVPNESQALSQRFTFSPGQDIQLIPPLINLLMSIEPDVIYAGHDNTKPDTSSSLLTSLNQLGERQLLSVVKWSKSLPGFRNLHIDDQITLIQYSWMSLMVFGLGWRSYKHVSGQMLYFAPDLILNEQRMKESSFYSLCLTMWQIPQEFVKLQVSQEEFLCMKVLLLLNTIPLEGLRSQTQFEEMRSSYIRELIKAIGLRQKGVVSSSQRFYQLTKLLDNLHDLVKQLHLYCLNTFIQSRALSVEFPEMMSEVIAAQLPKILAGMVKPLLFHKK
Kind of assay: Steroid hormone specificity: MMTV-CAT reporter with PR in PC-3 cells. The conditions noted are these: PC-3 cells transfected with MMTV-CAT and PR; FIG. 5.
Experimental: Ethynyl derivatized steroids were purchased from Steraloids. The plasmid pSG5-wild-type AR (pSG5) and mouse mammalian tumor virus (MMTV)-chloramphenicol acetyltransferase (CAT) were constructed as described (6). […] The human prostate cancer cell line, PC-3, and human breast cancer cell line, MCF-7, were maintained in Dulbecco's modified eagles medium (DMEM) containing 10% fetal calf serum. DNA transfection and CAT assays were performed essentially as described (4, 6, 7). Briefly, 4×10^5 cells were plated on 60 mm dishes 24 h before transfection, and the medium was changed to DMEM (without phenol red) with 10% charcoal-stripped fetal calf serum 1 hour before transfection. The cells were transfected using the calcium phosphate precipitation method. The total amount of DNA was adjusted to 8.5 μg with pSG5 in each transfection assay. After transfecting the cells for 24 hours, the transfection medium was removed, fresh DMEM was added and steroids were added. The cells were then incubated in DMEM with steroids for 24 hours. After incubation, the cells were harvested and whole cell extracts were used for CAT assay. Transfection efficiency was normalized by cotransfection with a βgalactosidase vector, which acted as an internal control. The CAT enzyme activity was quantitated by phosphor imager according to the manufacturer's instructions (Molecular Dynamics).

Assay [4] concerns the target T1, androgen receptor (AR). Kind of assay: Suppression of AED-induced AR transcriptional activity in the presence of HF (MMTV-CAT assay). The conditions noted are these: PC-3 cells, 1 μM HF, 50 nM AED; FIG. 4. The assay is classed as cell-based.
Text: as §1

Take `C[C@]12CC[C@H]3[C@@H](CC=C4C[C@@H](O)CC[C@@]43C)[C@@H]1CC(=O)[C@@H]2O` [Compound 8, 3β,17β-dihydroxy-androst-5-en-16-one]: in assay [1], the “effect on AED-mediated AR transcriptional activity” value (from here on “effect”) is given as “antagonized AED-mediated AR transcriptional activity”. The “androgenic activity (AR-mediated CAT gene transactivation)” value (“androgenic activity” below) in assay [2] is recorded as “little androgenic activity”.
Taken in the same sequence, the figures for `C[C@]12CC[C@H]3[C@@H](C(=O)C=C4C[C@@H](O)CC[C@@]43C)[C@@H]1CC[C@@H]2O` [Compound 22, 7-oxo-androstene-3β,17β-diol] were “either activation of AED-mediated AR transcriptional activity or they have no effect” and “little androgenic activity”.
In the case of `COC(=O)O[C@H]1CC[C@@]2(C)C(=CC(=O)[C@@H]3[C@@H]2CC[C@]2(C)C(=O)CC[C@@H]32)C1` [Compound 10, 3β,-methylcarbonate-androst-5-en-7,17-dione], the “effect” value in assay [1] is recorded as “antagonized AED-mediated AR transcriptional activity”. The “androgenic activity” value in assay [2] is “little androgenic activity”.
Take `CO[C@H]1CC[C@@]2(C)C(=CC(=O)[C@H]3[C@@H]4CC[C@H](O)[C@@]4(C)CC[C@@H]32)C1` [Compound 15, 3β-methoxy-17β-hydroxy-androst-5-ene-7-one]: the “effect” value in assay [1] was “either activation of AED-mediated AR transcriptional activity or they have no effect”. Further, the “androgenic activity” value in assay [2] is on record as “little androgenic activity”.
Consider `C#C[C@]1(O)CCC2C3CCc4cc(O)ccc4C3CC[C@@]21C` (stereo partly drawn) [Compound 4, 1, 3, 5(10)-estratriene-17α-ethynyl-3β,17β-diol], for which, in assay [3], the PR activity result was “some weak PR activity”.
With `C[C@]12C[C@H](O)[C@H]3[C@@H](CC=C4C[C@@H](O)CC[C@@]43C)[C@@H]1CC[C@@H]2O` [Compound 5, androst-5-ene-3β,11β,17β-triol], the “effect” value in assay [1] is reported as “either activation of AED-mediated AR transcriptional activity or they have no effect”. In addition, the “androgenic activity” value in assay [2] is “little androgenic activity”.
Taken in the same sequence, the figures for “3β,17β-diacetoxy-androst-5-ene-7α,17β-diol [Compound 13]” were “either activation of AED-mediated AR transcriptional activity or they have no effect” and “little androgenic activity”.
As to “17-methyl-marrianolic acid [Compound 18]”, in assay [1], the “effect” value is “either activation of AED-mediated AR transcriptional activity or they have no effect”. In addition, in assay [2], the “androgenic activity” value was “little androgenic activity”.
Turning to `CC(C)(O)C(=O)Nc1ccc([N+](=O)[O-])c(C(F)(F)F)c1` [HF, hydroxyflutamide], in assay [4], the “suppression of AED-mediated AR transcription activity by HF” value was “about 40%”.
In the case of `C#C[C@]1(O)CCC2C3CC=C4C[C@@H](O)CC[C@]4(C)C3CC[C@@]21C` (stereo partly drawn) [Compound 6, 17α-ethynyl-androst-5-ene-3β,17β-diol], in assay [1], the “effect” value is recorded as “antagonized AED-mediated AR transcriptional activity”. In addition, the “androgenic activity” value in assay [2] is listed as “little androgenic activity”.
Take “3β-methoxy-androst-5-ene-?,17β-diol [Compound 16]”: the “androgenic activity” value in assay [2] is recorded as “little androgenic activity”.

For the origin of these results see US7776845B2, “Pharmaceutical compositions” (Harbor Biosciences, Inc., priority 1999, dated 2010).
